From publication PMC6325233, “A Novel Actin Binding Drug with In Vivo Efficacy” (Antimicrobial Agents and Chemotherapy, 2018)

Assays:
[1] = tested on: Aspergillus fumigatus 28436; test: MIC susceptibility testing; assay type: cell-based; settings: CLSI M38-A2
Protocol: (§1) Occidiofungin was purified from a liquid culture of Burkholderia contaminans MS14 as previously described ([21]). MIC susceptibility testing was performed according to the CLSI M27-A3 and M38-A2 standards for the susceptibility testing of yeasts and filamentous fungi, respectively. S. cerevisiae deletion mutants were obtained from the commercially available BY4741 deletion library (Thermo Scientific).

Candida glabrata 28271 = test: MIC susceptibility testing; assay type: cell-based; settings: CLSI M27-A3
Protocol: as §1

Candida auris MRL# 35651 = test: MIC susceptibility testing; assay type: cell-based; settings: CLSI M27-A3; 24 hours
Protocol: as §1

[2] = tested on: Candida parapsilosis 2006; test: MIC susceptibility testing (caspofungin-resistant strain); assay type: cell-based; set-up: key to MIC, 50% inhibition: -: indicates absence of isolates with 50% inhibition endpoint; settings: CLSI M27-A3
Protocol: as §1

[3] = tested on: Cryptococcus neoformans 19526; test: as above; assay type: cell-based; set-up: key to MIC, 50% inhibition: -: indicates absence of isolates with 50% inhibition endpoint; settings: CLSI M27-A3; 72 hours
Protocol: as §1

[4] = target: T1, rabbit skeletal muscle F-actin (Oryctolagus cuniculus, UniProt P68135); test: Cosedimentation assay; assay type: binding; settings: F-actin 200 nM, Langmuir fit
T1 construct: Purified rabbit skeletal muscle filamentous actin (catalog number AKF99); purchased Cytoskeleton, Inc. AKF99; host or cells: rabbit skeletal muscle (tissue-purified)
Protocol: Purified rabbit skeletal muscle filamentous actin (catalog number AKF99) and G-actin (catalog number AKL95) were purchased from Cytoskeleton, Inc. Actin was reconstituted in Milli-Q water to achieve a stock concentration of 0.4 mg/ml in a buffer that consisted of 5 mM Tris-HCl (pH 8.0), 0.2 mM CaCl2, 0.2 mM ATP, 2 mM MgCl2, and 5% (wt/vol) sucrose as directed by the supplier. This solution was stored at −80°C in 50-μl aliquots until use. Immediately before use, each aliquot was thawed by placing it in a 37°C water bath for 5 min and then at room temperature. For all studies, 24 μg of F- or G-actin was used with 8 μg alkyne-OF. F-actin filaments were reacted with native occidiofungin for 15 min at room temperature at molar ratios of 1:10 (24 μg actin to 8 μg native occidiofungin) and 1:5 (24 μg actin to 4 μg native occidiofungin). As per the manufacturer’s instructions, Acti-stain 670 phalloidin (Cytoskeleton, Inc.) was used as a control in an in vitro actin filament binding study. Actin filaments treated with DMSO (solvent blank negative control) were stained and observed for comparison. […]
The reaction buffer for F-actin (200 nM) and occidiofungin in the cosedimentation study consisted of 5 mM Tris-HCl (pH 8.0), 0.2 mM ATP, and 2 mM MgCl2. […] A TSQ Quantum access triple quadrupole mass spectrometer was used to quantify the amount of occidiofungin within each sample. […]

**Q.** Which “MIC, 50% inhibition” value ([1]; 24 hours) does the source give for occidiofungin here?
**A.** 2 µg/mL

**Q.** And the “MIC, 100% inhibition” value ([1]; 24 hours)?
**A.** 4 µg/mL

**Q.** What about the “MIC, 50% inhibition” value ([1]; 48 hours) of the same substance?
**A.** 2 µg/mL

**Q.** And the “MIC, 100% inhibition” value ([1]; 48 hours)?
**A.** 4 µg/mL

**Q.** And the “MIC, 50% inhibition” value (Candida glabrata 28271; 24 hours)?
**A.** 4 µg/mL

**Q.** And the “MIC, 100% inhibition” value (Candida glabrata 28271; 24 hours)?
**A.** 8 µg/mL

**Q.** And the “MIC, 50% inhibition” value (Candida glabrata 28271; 48 hours)?
**A.** 4 µg/mL

**Q.** What about the “MIC, 100% inhibition” value (Candida glabrata 28271; 48 hours) of the same substance?
**A.** 8 µg/mL

**Q.** And the “MIC, 50% inhibition” value (Candida auris MRL# 35651)?
**A.** 0.125 µg/mL

**Q.** What about the “MIC, 100% inhibition” value (Candida auris MRL# 35651) of the same substance?
**A.** 0.25 µg/mL

**Q.** And the “MIC, 50% inhibition” value ([2]; 24 hours)?
**A.** 2 µg/mL

**Q.** What about the “MIC, 100% inhibition” value ([2]; 24 hours) of the same substance?
**A.** 4 µg/mL

**Q.** And the “MIC, 50% inhibition” value ([2]; 48 hours)?
**A.** -

**Q.** And the “MIC, 100% inhibition” value ([2]; 48 hours)?
**A.** 4 µg/mL

**Q.** And the “MIC, 50% inhibition” value [3]?
**A.** -

**Q.** What about the “MIC, 100% inhibition” value [3] of the same substance?
**A.** 2 µg/mL

**Q.** What about the “saturation of binding, stoichiometry ligand : actin monomer” value [4] of the same substance?
**A.** 24

**Q.** And the Kd ([4]; occidiofungin 25 to 25,600 nM, pH 8.0, room temperature, 30 min, LC-MS quantification, read-out: estimated macroscopic dissociation constant (Kd))?
**A.** 1000 nM
